Reference: patent US7498340B2, “Esters in position 20 of camptothecins” (priority 2002, dated 2009)
Counter-ions that a name gives are not always drawn.

test system: NCI-H460; settings: read-out: Cytotoxicity test on H460 cells: IC50; H460 cells; printed as 42 nM±6

| Compound | IC50 [µM] |
| --- | --- |
| CC[C@@]1(OC(=O)CCCBr)C(=O)OCc2c1cc1n(c2=O)Cc2c-1nc1ccccc1c2/C=N/OC(C)(C)C [ST2599, (E)-7-tert-butoxyiminomethyl-20-O-(4-bromo)-butyryl-camptothecin] | 0.042 |

same assay, conditions: read-out: NCI-H460 IC50; 2 h exposure, then 72 h recovery; concentration inhibiting 50% of cell survival; ALLFIT software

| Compound | IC50 [µM] |
| --- | --- |
| 7-ter-butoxyiminomethyl-20-O-(2-methoxy-phenyl-glycyl)succinyl-camptothecin [ST1617] | 0.029 |
| 20-O-(2-methoxyphenylglycyl)succinyl-camptothecin [ST1454] | 0.16 |
| 20-O-(benzylglycyl)succinyl-camptothecin [ST1451] | 0.15 |
| 20-O-(terbutylglycyl)succinyl-camptothecin bromide [ST1453] | 0.26 |
| CC[C@@]1(OC(=O)CCC(=O)NCC(=O)O)C(=O)OCc2c1cc1n(c2=O)Cc2cc3ccccc3nc2-1 [ST1452, 20-O-(glycyl)succinyl-camptothecin] | 1.6 |
| CC[C@@]1(OC(=O)CCC(=O)NCC(=O)OC(C)(C)C)C(=O)OCc2c1cc1n(c2=O)Cc2c-1nc1ccccc1c2C=NOC(C)(C)C [ST1616, 7-ter-butoxyiminomethyl-20-O-(terbutylglycyl)succinyl-camptothecin] | 0.004 |
| CCC1(OC(=O)CCC(=O)NCCN(C)C)C(=O)OCc2c1cc1n(c2=O)Cc2c-1nc1ccccc1c2C=NOC(C)(C)C (stereo not shown) [ST1657, (E)-7-tert-butoxyiminomethyl-20-O-[2-(dimethylamino)ethylamino]succinyl-camptothecin hydrochloride] | 0.012 |
| CCC1(OC(=O)CCC[N+](C)(C)C)C(=O)OCc2c1cc1n(c2=O)Cc2c-1nc1ccccc1c2C=NOC(C)(C)C (stereo not shown) [ST2200, (E)-7-tert-butoxyiminomethyl-20-O-(4-trimethylammonium)-butanoyl-camptothecin bromide] | 0.017 |
| (E)-7-tert-butoxyiminomethyl-20-O-(4-trimethyl-ammonium-3-hydroxy)butanoyl-camptothecin bromide [ST2204] | 0.041 |
